Here are results for 9 compounds from ChEMBL document CHEMBL1806393, “Cytotoxic oxasqualenoids from the red alga Laurencia viridis” (Eur J Med Chem, 2011).

The source made the active and inactive calls. No cut-off for these calls is given here.

The nature of data set [1]: Cytotoxicity against human CADO-ES1 cells assessed as inhibition of cell proliferation after 72 hrs by XTT assay. It is filed as functional, cell-based. The conditions noted are these: CADO-ES1, 72 h.
A short description of data set [2]: Inhibition of […] using p-nitrophenyl phosphate as substrate at <100 uM by UV/visible absorption spectroscopic analysis.
Data set [3] can be described thus: Cytotoxicity against human MM144 cells assessed as inhibition of cell proliferation after 72 hrs by XTT assay. It is filed as functional, cell-based.
The nature of data set [4]: Solubility of the compound in water. The conditions noted are these: buffer. The class given is physicochemical.
The subject of another data set is HeLa. Briefly: Cytotoxicity against human HeLa cells assessed as inhibition of cell proliferation after 72 hrs by XTT assay. It is filed as functional, cell-based.
Data set [5] relates to Jurkat. Briefly: Cytotoxicity against human Jurkat cells assessed as inhibition of cell proliferation after 72 hrs by XTT assay. The class given is functional, cell-based.
Data set [6] has as its system Jurkat. Briefly: Cell cycle arrest in human Jurkat cells assessed as increase in apoptotic cells at sub-G1 phase at 20 uM after 72 hrs using propidium iodide staining by flow cytometry. The class given is functional, cell-based.
Data set [7] deals with Jurkat. Briefly: Induction of apoptosis in human Jurkat cells assessed as DNA breakdown in sub-G1 phase at 20 uM after 24 to 72 hrs using propidium iodide staining by flow cytometry. The class given is functional, cell-based.

As for `CC(C)(O)[C@H]1CC[C@](C)([C@@H](O)CCC(O)(CO)[C@H]2CC[C@H]3O[C@@H]([C@]4(C)CC[C@@H](Br)C(C)(C)O4)CC[C@]3(C)O2)O1` (stereo partly drawn), the IC50 was 18 µM in data set [1], 21 µM in data set [3], 24 µM in the data set with HeLa and 4.6 µM in the data set on Jurkat [5]. Further, in data set [2], the inhibition result is “inactive”. For the same compound, the solubility result in data set [4] is “Insoluble”.

Take `CC(C)(O)[C@H]1CC[C@](C)([C@@H](O)CC[C@@](O)(CO)C(=O)CC[C@H]2O[C@@H]([C@]3(C)CC[C@@H](Br)C(C)(C)O3)CC[C@]2(C)O)O1` [PRETHYRSENOL A]: the concentration for half-maximal inhibition (IC50) in data set [1] came out at 14.5 µM; in data set [3], 10.2 µM; in the data set with HeLa, 29 µM; in the data set with Jurkat [5], 8.15 µM. Besides, the inhibition entry in data set [2] was “inactive”. The solubility entry in data set [4] is “Insoluble”.

In the case of `CC(C)(O)[C@H]1CC[C@](C)([C@@H](O)CC[C@@](O)(CO)C(=O)[C@H](O)C[C@H]2O[C@@H]([C@]3(C)CC[C@@H](Br)C(C)(C)O3)CC[C@]2(C)O)O1`, the IC50 in data set [1] amounted to 3.1 µM; in data set [3], 15.5 µM; in the data set with HeLa it was 26 µM; in the data set on Jurkat [5] it was 7.2 µM. Further, the inhibition result in data set [2] is “inactive”. Besides, the solubility entry in data set [4] is reported as “Insoluble”.

For `CC(C)(O)[C@H]1CC[C@](C)([C@H](CCC(O)(CO)[C@H]2CC[C@H]3O[C@@H]([C@]4(C)CC[C@@H](Br)C(C)(C)O4)CC[C@]3(C)O2)OS(=O)(=O)O)O1` (stereo partly drawn), the IC50 was 11 µM in data set [1], 13.5 µM in data set [3], 27.5 µM in the data set with HeLa and 6.9 µM in the data set with Jurkat [5]. Further, the inhibition result in data set [2] was “inactive”. The solubility result in data set [4] is listed as “Insoluble”.

In the case of `CC(C)(O)[C@H]1CC[C@](C)([C@@H](O)CC[C@@](O)(CO)C2=CC[C@H]3O[C@@H]([C@]4(C)CC[C@@H](Br)C(C)(C)O4)CC[C@]3(C)O2)O1`, in data set [2], the inhibition entry is “inactive”.

For `CC(C)(O)[C@H]1CC[C@](C)([C@H](CCC(O)(COS(=O)(=O)O)[C@H]2CC[C@H]3O[C@@H]([C@]4(C)CC[C@@H](Br)C(C)(C)O4)CC[C@]3(C)O2)OS(=O)(=O)O)O1` (stereo partly drawn), the IC50 in data set [1] came out at 17 µM; in data set [3], 31.5 µM; in the data set with HeLa, 35.5 µM; in the data set on Jurkat [5] it was 8.6 µM. Moreover, in data set [2], the inhibition entry is “inactive”. Besides, the solubility entry in data set [4] is given as “Insoluble”.

Turning to `C=C(CC[C@H](O)[C@@]1(C)CC[C@H](C(C)(C)O)O1)[C@H]1CC[C@H]2O[C@@H]([C@]3(C)CC[C@@H](Br)C(C)(C)O3)CC[C@]2(C)O1` [DEHYDROTHYRSIFEROL], the 50% inhibitory concentration (IC50) in data set [1] stood at 12 µM; in data set [3], 21.5 µM; in the data set with HeLa it was 34.5 µM; in the data set on Jurkat [5], 13.5 µM. Besides, the inhibition entry in data set [2] was “inactive”. In addition, the outcome in the data set on Jurkat [6] and in the data set on Jurkat [7] was Active. In data set [4], the solubility entry is given as “Insoluble”.

Take `CC(C)(O)[C@H]1CC[C@](C)([C@@H](O)CC[C@@H](CO)C2=CC[C@H]3O[C@@H]([C@]4(C)CC[C@@H](Br)C(C)(C)O4)CC[C@]3(C)O2)O1`: the IC50 in data set [1] came to 16.5 µM; in data set [3], 7.3 µM; in the data set with HeLa, 23 µM; with Jurkat [5] it was 7.55 µM. The inhibition result in data set [2] is “inactive”. Also, the solubility result in data set [4] is on record as “Insoluble”.

For `C=C(CC[C@H](OS(=O)(=O)O)[C@@]1(C)CC[C@H](C(C)(C)O)O1)[C@H]1CC[C@H]2O[C@@H]([C@]3(C)CC[C@@H](Br)C(C)(C)O3)CC[C@]2(C)O1`, the IC50 in data set [1] turned out to be 27 µM; in data set [3], 18 µM; in the data set with HeLa, 33 µM; in the data set on Jurkat [5], 12 µM. In data set [2], the inhibition entry is “inactive”. Besides, the result with Jurkat [6] and in the data set with Jurkat [7] was Active. Also, the solubility entry in data set [4] is recorded as “Insoluble”.
